The results in this text go back to US20240368159A1, “HPK1 DEGRADERS, COMPOSITIONS COMPRISING THE HPK1 DEGRADER, AND METHODS OF USING THE SAME” (BIOFRONT LTD, priority 2021, published 2024).

SMILES strings stand for the structures. Bounds are passed on as bounds.

Assay [1] deals with T1, HPK1 protein (Homo sapiens, UniProt Q92918).
T1 construct: purchased Signal Chem M23-11G-10
T1 sequence (Q92918 1-346 limits assumed): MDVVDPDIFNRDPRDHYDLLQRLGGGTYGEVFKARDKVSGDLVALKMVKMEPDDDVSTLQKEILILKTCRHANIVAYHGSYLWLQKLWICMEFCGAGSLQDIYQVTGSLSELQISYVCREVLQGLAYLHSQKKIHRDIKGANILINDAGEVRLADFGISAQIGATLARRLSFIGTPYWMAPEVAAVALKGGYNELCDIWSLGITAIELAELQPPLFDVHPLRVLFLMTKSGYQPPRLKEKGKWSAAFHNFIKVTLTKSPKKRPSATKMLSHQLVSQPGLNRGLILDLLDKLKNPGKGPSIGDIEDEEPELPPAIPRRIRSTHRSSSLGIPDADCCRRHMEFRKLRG
Description: HPK1 enzyme inhibition assay (ADP-Glo). It counts as biochemical. The note with it: MBP substrate, ATP, ADP-Glo readout. The protocol:
The compound was dissolved in 100% DMSO at the concentration of 10 mM. The HPK1 protein was purchased from Signal Chem (M23-11G-10). 2.5 μL per well of 2×HPK1 protein was added to assay plate containing the test compound, centrifuged at 1500 rpm for 1 minute, and then incubated at 25° C. for 60 minutes. MBP protein was purchased from Signal Chem (M42-51N) and ATP was purchased from Promega (V9102). The two were added 2.5 μL per well mixture of 2×MBP (0.2 ug/ul) and ATP (20 μM), centrifuged at 1500 rpm for 1 minute, then incubated at 25° C. for 60 minutes. Then added 5 μL of ADP-Glo from Promega (V9102) to the assay plate and depleted the unconsumed ATP for 60 minutes. Then centrifuged at 1500 rpm for 1 minute and incubated at 25° C. for 60 minutes. Finally, 10 μL of the kinase assay reagent from Promega (V9102) was added to the assay plate to convert ADP to ATP, centrifuged at 1500 rpm for 1 minute, incubate at 25° C. for 40 minutes. After 40 minutes incubation, the […] was determined. Based on the results, the IC50 value of the compound was calculated.
(ADP-Glo turns the ADP formed in a reaction into a luminescent signal.)

For assay [2], the target named is T2, HPK1 protein (Mus musculus, UniProt P70218).
T2 construct: the CD3+ T cell population was isolated from spleenocytes of mice; endogenous in cells; host or cells: primary mouse splenic CD3+ (pan) T cells
T2 sequence (P70218 1-827): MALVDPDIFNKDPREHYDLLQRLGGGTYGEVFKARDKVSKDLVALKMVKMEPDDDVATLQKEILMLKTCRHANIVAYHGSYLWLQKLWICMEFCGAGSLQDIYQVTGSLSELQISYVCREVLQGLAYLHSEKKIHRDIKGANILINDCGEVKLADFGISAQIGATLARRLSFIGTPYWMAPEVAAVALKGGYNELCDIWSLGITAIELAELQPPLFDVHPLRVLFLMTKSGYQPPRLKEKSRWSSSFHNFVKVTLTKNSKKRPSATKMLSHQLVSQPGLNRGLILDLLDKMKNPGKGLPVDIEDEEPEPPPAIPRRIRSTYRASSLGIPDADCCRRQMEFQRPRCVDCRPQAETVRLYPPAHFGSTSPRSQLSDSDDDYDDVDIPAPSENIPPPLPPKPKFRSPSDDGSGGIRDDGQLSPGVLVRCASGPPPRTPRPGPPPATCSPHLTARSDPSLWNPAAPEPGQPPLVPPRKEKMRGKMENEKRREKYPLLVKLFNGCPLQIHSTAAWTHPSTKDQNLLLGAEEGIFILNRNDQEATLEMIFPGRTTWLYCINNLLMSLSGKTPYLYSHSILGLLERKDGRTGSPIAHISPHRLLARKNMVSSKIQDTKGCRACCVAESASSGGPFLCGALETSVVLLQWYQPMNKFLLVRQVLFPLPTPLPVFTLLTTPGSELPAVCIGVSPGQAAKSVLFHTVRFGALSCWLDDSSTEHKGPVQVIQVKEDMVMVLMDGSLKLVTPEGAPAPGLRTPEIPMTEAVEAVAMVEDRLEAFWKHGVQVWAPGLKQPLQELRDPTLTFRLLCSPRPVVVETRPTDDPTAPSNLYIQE
The experiment in a line: HPK1 protein degradation in mouse pan T cell (western blot). The note with it: 18 h incubation. It counts as cell-based. On the procedure:
HPK1 protein degradation in mouse pan T cell: the CD3+ T cell population was isolated from spleenocytes of mice by using Pan T cell isolation kit from Miltenyi Biotec (130-095-130) following manufacture's instruction. The isolated T cells were then incubated with a variety of concentrations of compound. After incubation for 18 h, the cells were collected and lysed. The protein concentration was determined by BCA protein assay kit from Thermo (23227). The HPK1 protein level was determined by western blots, using anti-human HPK1 polyclonal antibody from CST (4472). Proteins were loaded into each well of the pre-casting gels and subjected to electrophoretic separation by SDS-PAGE. The protein resolved by SDS-PAGE were transferred to PVDF, blocked by 5% skim milk and probed with anti-human HPK1 antibody or β-actin antibody from CST (3700S), using following standard western blotting procedure.
Background: Immunoblotting shows a protein as a band on a membrane.

For `O=C1CCC(c2ccc(N3CCN(CCCN4CCN(c5cccc(-c6cnc7[nH]cc(C8CC8)c7c6Cl)c5)C(=O)C4)CC3)cc2)C(=O)N1` (stereo not shown) [Example 75, 3-(4-(4-(3-(4-(3-(4-chloro-3-cyclopropyl-1H-pyrrolo[2,3-b]pyridin-5-yl)phenyl)-3-oxopiperazin-1-yl)propyl)piperazin-1-yl)phenyl)piperidine-2,6-dione], the half-inhibitory concentration (IC50) (as a rule, the concentration that inhibits the measured activity by half) at HPK1 protein [1] was at most 10 nM. Also, the Dmax (as a rule, the largest share of the target that was removed) at HPK1 protein [2] was determined as 55%.
Taken in the same sequence, the figures for `O=C1CCC(N2Cc3cc(N4CCC(OCC(=O)N5CCN(c6cccc(-c7cnc8[nH]cc(C#Cc9ccccn9)c8c7Cl)c6)C(=O)C5)CC4)ccc3C2=O)C(=O)N1` (stereo not shown) [Example 57, 3-(5-(4-(2-(4-(3-(4-chloro-3-(pyridin-2-ylethynyl)-1H-pyrrolo[2,3-b]pyridin-5-yl)phenyl)-3-oxopiperazin-1-yl)-2-oxoethoxy)piperidin-1-yl)-1-oxoisoindolin-2-yl)piperidine-2,6-dione] were 100 to 1000 nM and 0%.
Regarding `CCc1c[nH]c2ncc(-c3cccc(N4CCN(CCCN5CCN(c6ccc7c(c6)C(=O)N(C6CCC(=O)NC6=O)C7=O)CC5)CC4=O)c3)c(Cl)c12` (stereo not shown) [Example 27], at HPK1 protein [1], the IC50 lay within 10 to 100 nM. The Dmax on HPK1 protein [2] was found to be 95%.
Taken in the same sequence, the figures for `O=C1CCC(N2Cc3cc(F)c(N4CCC(CCN5CCN(c6cccc(-c7cnc8[nH]cc(C9CC9)c8c7Cl)c6)C(=O)C5)CC4)cc3C2=O)C(=O)N1` (stereo not shown) [Example 61] were 100 to 1000 nM and 50%.
Take `CCc1c[nH]c2ncc(-c3cccc(N4CCN(CCCCNc5ccc6c(c5)C(=O)N(C5CCC(=O)NC5=O)C6=O)CC4=O)c3)c(Cl)c12` (stereo not shown) [Example 59]: at HPK1 protein [1], the concentration for half-maximal inhibition (IC50) was 10 to 100 nM. Besides, the Dmax at HPK1 protein [2] came to 60%.
Taken in the same sequence, the figures for `CCc1c[nH]c2ncc(-c3cccc(N4CCN(CCC(=O)N5CCN(c6ccc7c(c6)C(=O)N(C6CCC(=O)NC6=O)C7=O)CC5)CC4=O)c3)c(Cl)c12` (stereo not shown) [Example 24] were 10 to 100 nM and 91%.
With `CCc1c[nH]c2ncc(-c3cccc(N4CCN(C(=O)CCCN(C)c5cccc6c5CN(C5CCC(=O)NC5=O)C6=O)CC4=O)c3)c(Cl)c12` (stereo not shown) [Example 15, 3-(4-((4-(4-(3-(4-chloro-3-ethyl-1H-pyrrolo[2,3-b]pyridin-5-yl)phenyl)-3-oxopiperazin-1-yl)-4-oxobutyl)(methyl)amino)-1-oxoisoindolin-2-yl)piperidine-2,6-dione], on HPK1 protein [1], the concentration for half-maximal inhibition (IC50) is 10 to 100 nM.
Molecule `CCc1c[nH]c2ncc(-c3cccc(N4CCN(CCOCCN5CCN(c6cc7c(cc6F)C(=O)N(C6CCC(=O)NC6=O)C7=O)CC5)CC4=O)c3)c(Cl)c12` (stereo not shown) [Example 33] displayed a half-maximal inhibitory concentration (IC50) against HPK1 protein [1] of 10 to 100 nM. On HPK1 protein [2], the Dmax worked out at 60%.
For the molecule `CCc1c[nH]c2ncc(-c3cccc(N4CCN(C(=O)CCCCCOc5cccc6c5CN(C5CCC(=O)NC5=O)C6=O)CC4=O)c3)c(Cl)c12` (stereo not shown) [Example 5, 3-(4-((6-(4-(3-(4-chloro-3-ethyl-1H-pyrrolo[2,3-b]pyridin-5-yl)phenyl)-3-oxopiperazin-1-yl)-6-oxohexyl)oxy)-1-oxoisoindolin-2-yl)piperidine-2,6-dione], the 50% inhibitory concentration (IC50) against HPK1 protein [1] lay in the range of 10 to 100 nM.
Regarding `CCc1c[nH]c2ncc(-c3cccc(N4CCN(CC(=O)N5CCN(c6cc7c(cc6F)C(=O)N(C6CCC(=O)NC6=O)C7=O)CC5)CC4=O)c3)c(Cl)c12` (stereo not shown) [Example 29, 5-(4-(2-(4-(3-(4-chloro-3-ethyl-1H-pyrrolo[2,3-b]pyridin-5-yl)phenyl)-3-oxopiperazin-1-yl)acetyl)piperazin-1-yl)-2-(2,6-dioxopiperidin-3-yl)-6-fluoroisoindoline-1,3-dione], the IC50 on HPK1 protein [1] is 10 to 100 nM. On HPK1 protein [2], the greatest degradation seen (Dmax) was determined as 80%.
On HPK1 protein [1], `CCc1c[nH]c2ncc(-c3cccc(N4CCN(C(=O)CCCOc5cccc6c5CN(C5CCC(=O)NC5=O)C6=O)CC4=O)c3)c(Cl)c12` (stereo not shown) [Example 4, 3-(4-(4-(4-(3-(4-chloro-3-ethyl-1H-pyrrolo[2,3-b]pyridin-5-yl)phenyl)-3-oxopiperazin-1-yl)-4-oxobutoxy)-1-oxoisoindolin-2-yl)piperidine-2,6-dione] had an IC50 of 10 to 100 nM.
The same measure, in the same setting: the value for `CCc1c[nH]c2ncc(-c3cccc(N4CCN(C(=O)CCCCCCOc5cccc6c5CN(C5CCC(=O)NC5=O)C6=O)CC4=O)c3)c(Cl)c12` (stereo not shown) [Example 6, 3-(4-((7-(4-(3-(4-chloro-3-ethyl-1H-pyrrolo[2,3-b]pyridin-5-yl)phenyl)-3-oxopiperazin-1-yl)-7-oxoheptyl)oxy)-1-oxoisoindolin-2-yl)piperidine-2,6-dione] was 10 to 100 nM; that for `CCc1c[nH]c2ncc(-c3cccc(N4CCN(C(=O)CCCCCCCN(C)c5cccc6c5CN(C5CCC(=O)NC5=O)C6=O)CC4=O)c3)c(Cl)c12` (stereo not shown) [Example 11, 3-(4-((8-(4-(3-(4-chloro-3-ethyl-1H-pyrrolo[2,3-b]pyridin-5-yl)phenyl)-3-oxopiperazin-1-yl)-8-oxooctyl)(methyl)amino)-1-oxoisoindolin-2-yl)piperidine-2,6-dione] was 100 to 1000 nM.
Same read-out and setting: the result for `CCc1c[nH]c2ncc(-c3cccc(N4CCN(CCNc5ccc6c(c5)C(=O)N(C5CCC(=O)NC5=O)C6=O)CC4=O)c3)c(Cl)c12` (stereo not shown) [Example 60, 5-((2-(4-(3-(4-chloro-3-ethyl-1H-pyrrolo[2,3-b]pyridin-5-yl)phenyl)-3-oxopiperazin-1-yl)ethyl)amino)-2-(2,6-dioxopiperidin-3-yl)isoindoline-1,3-dione] reads 10 to 100 nM.
On HPK1 protein [1], `O=C1CCC(N2Cc3cc(N4CCC(CCN5CCN(c6cccc(-c7cnc8[nH]cc(C9CC9)c8c7Cl)c6)C(=O)C5)CC4)c(F)cc3C2=O)C(=O)N1` (stereo not shown) [Example 62, 3-(5-(4-(2-(4-(3-(4-chloro-3-cyclopropyl-1H-pyrrolo[2,3-b]pyridin-5-yl)phenyl)-3-oxopiperazin-1-yl)ethyl)piperidin-1-yl)-6-fluoro-1-oxoisoindolin-2-yl)piperidine-2,6-dione] yielded a concentration for half-maximal inhibition (IC50) of 10 to 100 nM. Also, the greatest degradation seen (Dmax) at HPK1 protein [2] is 95%.
As to `CCc1c[nH]c2ncc(-c3cccc(N4CCN(C(=O)COC5CCN(c6cccc7c6C(=O)N(C6CCC(=O)NC6=O)C7=O)CC5)CC4=O)c3)c(Cl)c12` (stereo not shown) [Example 17, 4-(4-(2-(4-(3-(4-chloro-3-ethyl-1H-pyrrolo[2,3-b]pyridin-5-yl)phenyl)-3-oxopiperazin-1-yl)-2-oxoethoxy)piperidin-1-yl)-2-(2,6-dioxopiperidin-3-yl)isoindoline-1,3-dione], the half-maximal inhibitory concentration (IC50) at HPK1 protein [1] was in the range of 100 to 1000 nM.
